{"source": "patent US5972943A", "about": "“Pyridinecarboxamide derivatives” (Nisshin Flour Milling Co., Ltd., priority 1996, dated 1999)", "key": {"hypoxic model of mice": {"test_system": "hypoxic model of mice", "experiment": "Cerebral protective action (anti-anoxia action), hypoxic model of mice, gasping duration after decapitation", "assay_type": "in vivo, ddY-strain male mice", "conditions": "1.0 mg/kg i.v., 30 minutes before decapitation", "protocol": "Cerebral protective action of the pyridinecarboxamide derivatives of this invention (an anti-anoxia action) were studied using a hypoxic model of mice.\nUsing ddY-strain male mice of 6 weeks old, the test substance of Compound 1, Compound 10 or Compound 11 was intravenously administered to the tail vein at the dose of 1.0 mg/kg. After 30 minutes from the administration, animals were decapitated to measure a gasping duration. This measurement was made by two persons who had not been informed of the test substances and the measured values were averaged to obtain the data. Also, the test was carried out in the same manner as described above except that Comparative Compound 1 was administered instead of the test substances.\nThe action of each substance will be shown in Table 2, with the gasping time of Comparative Compound 1 being defined as 1.\nIt is believed that grasping after decapitation is controlled by the respiratory center and, if the nervous functions are maintained by the respiratory center, the gasping duration would be prolonged. […] In view of the foregoing, the pyridinecarboxamide derivatives of this invention can prolong the gasping duration and then are useful as a cerebral protective agent."}, "[1]": {"experiment": "Behavior suppressing activity (background statement)", "assay_type": "in vivo", "conditions": "background / disclosure statement"}, "[2]": {"experiment": "Behavior suppressing action (general behaviors of mice)", "assay_type": "in vivo, ddY-strain mice", "conditions": "10 mg/kg, tail vein; for Behavioral suppression: observed over one hour", "protocol": "The effect of the present pyridinecarboxamide derivatives on general behaviors of mice was studied.\nUsing ddY-strain mice of 7 weeks old, test substance was administered at 100μ11/10 sec to the tail vein and behavior of the animal was observed over one hour. After the administration, sedative animal was evaluated as sedated, while animal with behavioral suppression was evaluated as suppressed."}, "[3]": {"test_system": "hypoxia and anoxia models", "conditions": "Sakurai et al., Jpn. J. Pharmacol. 1993; cited from earlier work"}, "[4]": {"test_system": "cerebral edema, ischemic reperfusion model using SHR-SP", "experiment": "Anti-cerebral edema action (ischemic reperfusion model using SHR-SP)", "assay_type": "in vivo, male SHR-SP (spontaneous hypertensive rats)", "conditions": "1 mg/kg i.v. twice; for Inhibitory rate of cerebral ischemia (cerebral edema): immediately after ischemia and immediately before reperfusion", "protocol": "The pyridinecarboxamide derivatives of this invention were studied for the inhibitory action on cerebral edema with the model using SHR-SP (Spontaneous hypertensive rats which are vulnerable to cerebral hemorrhage).\nMale SHR-SP of 15-17 weeks old were measured for the blood pressure one day before the testing and classified into groups. Both common carotid arteries were separated under pentobarbital anesthesia at 35 mg/kg and common carotid arteries were fastened by clamp to cause ischemia. After 2 hours, the clamp was removed from the common carotid artery to reperfuse. After a further 2 hours, the animal was decapitated and the cerebrum excised under ether anesthesia. The cerebrum was dried in an oven at 105° C. for 24 hours and the cerebral water content (%) was calculated. [formula]\nCompound 1 and Comparative Compound 2 were intravenously administered twice, that is, immediately after the ischemia and immediately before the reperfusion at the dose of 1 mg/kg, respectively."}, "[5]": {"test_system": "cerebral edema model using polyvinyl acetate", "experiment": "Anti-cerebral edema action (obstructive cerebral ischemia model using polyvinyl acetate)", "assay_type": "in vivo, Wistar-strain male rats", "conditions": "1 mg/kg i.v., 5 minutes before polyvinyl acetate; rats", "protocol": "Inhibiting action on cerebral ischemia was studied in an obstructive cerebral ischemia model using polyvinyl acetate.\nThe obstructive model was prepared as described below. (Hiroyoshi Nishi et al., Stroke 1989, 20:1236-1240)\nWistar-strain male rats weighing 200-350 g were used and fixed at the dorsal position under anesthesia of ether and then the left common carotid artery, internal carotid artery, external carotid artery were isolated. The external carotid artery was ligated, the pterylgopalatine artery was fastened with clamp and a cannula was inserted from the external carotid artery toward the branch between the internal carotid artery and the common carotid artery. 5 μl of a 3% polyvinyl acetate/52% ethanol solution in water was injected. After 30 seconds, the clamp was removed from the artery and then the wound was sutured. After 24 hours, animal was decapitated and the cerebrum was isolated, within 120 seconds from which wet weights of the left cerebrum and the right cerebrum were measured. The left and right cerebra were dried in an oven at 105° C. for 24 hours and then the dry weights were measured. A cerebral water content was calculated according to the following equation: [formula]\nCompound 1 or Compound 9 was intravenously injected to the tail vein at the doses of 1.0 mg/kg and 3.0 mg/kg before 5 minutes from the administration of polyvinyl acetate."}, "hippocampus CA1 cells": {"test_system": "hippocampus CA1 cells", "experiment": "Inhibitory rate of delayed neuronal death", "assay_type": "in vivo, MON/Jms/Gbs-strain male jirds", "conditions": "0.5 mg/kg, carotid artery, immediately after ischemia; jirds; 7 days", "protocol": "MON/Jms/Gbs-strain male jirds (weighing 60-80 g) were fixed at the dorsal position under 1.5-2.0% halothane anesthesia and the common carotid artery was isolated. Ischemia was caused by fastening the common carotid artery with clamp for 3 minutes and then reperfused. After 7 days, the brain was excised under ether anesthesia and fixed with 10% formalin for 2 days and then tissue slices of the hippocampus were prepared. The hippocampus CA1 cells were stained using HE staining and the survival rate of the CA1 cells was evaluated.\nCompound 1 was administered to the carotid artery at the dose of 0.5 mg/kg immediately after ischemia. Using as a control the case wherein the drug was not administered, inhibitory rate was calculated according to the following equation: [formula]"}, "[6]": {"test_system": "lipid peroxidation in rat brain homogenate", "experiment": "Inhibitory action on lipid peroxidation in rat brain homogenate", "assay_type": "biochemical, Wistar-strain male rats", "conditions": "10^-4 M, 37° C., 15 minutes", "protocol": "Inhibitory action on lipid peroxidation was studied in rat brain homogenate.\nWistar-strain male rats (weighing 230-300 g) were decapitated and the cerebrum was quickly excised. A 4 times volume of a solution of 50 mM phosphoric acid and […] NaCl (pH 7.4) was added and the mixture was homogenated and then centrifuged at 3000 rpm for 10 minutes. The supernatant thus obtained was prepared to give a protein level of 2 mg/ml.\nDetermination of lipid peroxide was carried out using TBA method (thiobarbituric acid). To the brain homogenate was added each of Compound 1, Compound 5, Compound 6, Compound 8, Compound 9, Compound 11 and Compound 14 as a test substance to give a final concentration of 10^-4 M, thereby initiating the reaction. After incubation at 37° C. for 15 minutes, the reaction was stopped in ice by adding a 35% perchloric acid solution. The reaction mixture was centrifuged at 4° C. and 1000 rpm for 5 minutes and to the supernatant thus obtained was added a 0.5% TBA solution. The mixture was boiled at 100° C. for 15 minutes. After cooling, absorbance was determined at 532 nm. 1,1,3,3-Tetraethoxypropane as a standard was subjected to the reaction in the same manner as above and an amount of lipid peroxide, that is, an amount of the malondialdehyde (MDA) produced was determined from the absorbance.\nInhibitory rate of lipid peroxidation was calculated according to the following equation: [formula]"}, "[7]": {"conditions": "known drug, background statement; cited from earlier work"}}, "data": [{"smiles": "CN1CCN(c2ccc(C(=O)NCCCCCCCCCCCO[N+](=O)[O-])cn2)CC1", "note": "[Comparative Compound 1, N-(11-nitroxy-1-undecanyl)-6-(4-methyl-1-piperazinyl)nicotinamide, reference compound]", "values": [{"measurement": "Gasping duration (relative to Comparative Compound 1 defined as 1)", "setting": "hypoxic model of mice", "value": 1}, {"measurement": "Behavior suppressing activity", "setting": "[1]", "value": "observed to possess a behavior suppressing activity"}, {"measurement": "General behaviors (result in words)", "setting": "[2]", "value": "suppression of behavior being shown"}, {"measurement": "Behavioral suppression", "setting": "[2]", "value": "Sedated"}, {"measurement": "Cerebral protective effect on the hypoxia and anoxia models", "setting": "[3]", "value": "could show a cerebral protective effect on the hypoxia and anoxia models"}]}, {"smiles": "CN1CCN(c2ccc(C(=O)NCCCCCCCCCCCCO[N+](=O)[O-])cn2)CC1", "note": "[Comparative Compound 2, N-(12-nitroxy-1-dodecanyl)-6-(4-methyl-1-piperazinyl)nicotinamide, reference compound]", "values": [{"measurement": "Anti-cerebral edema activity (result in words)", "setting": "[4]", "value": "made cerebral edema worse"}, {"measurement": "Inhibitory rate of cerebral ischemia (cerebral edema)", "setting": "[4]", "value": -90, "unit": "%"}]}, {"smiles": "CN1CCN(c2ccc(C(=O)NCCCCCCCCCCCCCCO[N+](=O)[O-])cn2)CC1", "note": "[Compound 1, N-(14-Nitroxytetradecyl)-6-(4-methyl-1-piperazinyl)pyridine-3-carboxamide]", "values": [{"measurement": "Gasping duration (relative to Comparative Compound 1 defined as 1)", "setting": "hypoxic model of mice", "value": 2.6}, {"measurement": "Inhibitory rate of cerebral edema", "setting": "[5]", "value": 44.0, "unit": "%"}, {"measurement": "Anti-cerebral edema activity (result in words)", "setting": "[4]", "value": "potent anti-cerebral edema activity"}, {"measurement": "Inhibitory rate of cerebral ischemia (cerebral edema)", "setting": "[4]", "value": 63, "unit": "%"}, {"measurement": "Inhibitory rate (delayed neuronal death)", "setting": "hippocampus CA1 cells", "value": 47, "unit": "%"}, {"measurement": "General behaviors (result in words)", "setting": "[2]", "value": "No abnormalities were observed in general behaviors"}, {"measurement": "Behavioral suppression", "setting": "[2]", "value": "Non"}, {"measurement": "Inhibitory rate of lipid peroxidation", "setting": "[6]", "value": 91, "unit": "%"}]}, {"smiles": "CCN1CCN(c2ccc(C(=O)NCCCCCCCCCCCCCCO[N+](=O)[O-])cn2)CC1", "note": "[Compound 5, N-(14-Nitroxytetradecyl)-6-(4-ethyl-1-piperazinyl)pyridine-3-carboxamide]", "values": [{"measurement": "General behaviors (result in words)", "setting": "[2]", "value": "No abnormalities were observed in general behaviors"}, {"measurement": "Behavioral suppression", "setting": "[2]", "value": "Non"}, {"measurement": "Inhibitory rate of lipid peroxidation", "setting": "[6]", "value": 69, "unit": "%"}]}, {"smiles": "O=C(NCCCCCCCCCCCCCCO[N+](=O)[O-])c1ccc(N2CCNCC2)nc1", "note": "[Compound 6, N-(14-Nitroxytetradecyl)-6-(1-piperazinyl)pyridine-3-carboxamide]", "values": [{"measurement": "General behaviors (result in words)", "setting": "[2]", "value": "No abnormalities were observed in general behaviors"}, {"measurement": "Behavioral suppression", "setting": "[2]", "value": "Non"}, {"measurement": "Inhibitory rate of lipid peroxidation", "setting": "[6]", "value": 59, "unit": "%"}]}, {"smiles": "CCCN1CCN(c2ccc(C(=O)NCCCCCCCCCCCCCCO[N+](=O)[O-])cn2)CC1", "note": "[Compound 7, N-(14-Nitroxytetradecyl)-6-(4-propyl-1-piperazinyl)pyridine-3-carboxamide]", "values": [{"measurement": "General behaviors (result in words)", "setting": "[2]", "value": "No abnormalities were observed in general behaviors"}, {"measurement": "Behavioral suppression", "setting": "[2]", "value": "Non"}]}, {"smiles": "CC(C)N1CCN(c2ccc(C(=O)NCCCCCCCCCCCCCCO[N+](=O)[O-])cn2)CC1", "note": "[Compound 8, N-(14-Nitroxytetradecyl)-6-(4-isopropyl-1-piperazinyl)pyridine-3-carboxamide]", "values": [{"measurement": "General behaviors (result in words)", "setting": "[2]", "value": "No abnormalities were observed in general behaviors"}, {"measurement": "Behavioral suppression", "setting": "[2]", "value": "Non"}, {"measurement": "Inhibitory rate of lipid peroxidation", "setting": "[6]", "value": 70, "unit": "%"}]}, {"smiles": "CN1CCN(c2ccc(C(=O)NCCCCCCCCCCCCCCCCO[N+](=O)[O-])cn2)CC1", "note": "[Compound 9, N-(16-Nitroxyhexadecyl)-6-(4-methyl-1-piperazinyl)pyridine-3-carboxamide]", "values": [{"measurement": "Inhibitory rate of cerebral edema", "setting": "[5]", "value": 33.3, "unit": "%"}, {"measurement": "General behaviors (result in words)", "setting": "[2]", "value": "No abnormalities were observed in general behaviors"}, {"measurement": "Behavioral suppression", "setting": "[2]", "value": "Non"}, {"measurement": "Inhibitory rate of lipid peroxidation", "setting": "[6]", "value": 72, "unit": "%"}]}, {"smiles": "CCN1CCN(c2ccc(C(=O)NCCCCCCCCCCCCCCCCO[N+](=O)[O-])cn2)CC1", "note": "[Compound 10, N-(16-Nitroxyhexadecyl)-6-(4-ethyl-1-piperazinyl)pyridine-3-carboxamide]", "values": [{"measurement": "Gasping duration (relative to Comparative Compound 1 defined as 1)", "setting": "hypoxic model of mice", "value": 1.7}, {"measurement": "General behaviors (result in words)", "setting": "[2]", "value": "No abnormalities were observed in general behaviors"}, {"measurement": "Behavioral suppression", "setting": "[2]", "value": "Non"}]}, {"smiles": "CC(C)N1CCN(c2ccc(C(=O)NCCCCCCCCCCCCCCCCO[N+](=O)[O-])cn2)CC1", "note": "[Compound 11, N-(16-Nitroxyhexadecyl)-6-(4-isopropyl-1-piperazinyl)pyridine-3-carboxamide]", "values": [{"measurement": "Gasping duration (relative to Comparative Compound 1 defined as 1)", "setting": "hypoxic model of mice", "value": 1.4}, {"measurement": "General behaviors (result in words)", "setting": "[2]", "value": "No abnormalities were observed in general behaviors"}, {"measurement": "Behavioral suppression", "setting": "[2]", "value": "Non"}, {"measurement": "Inhibitory rate of lipid peroxidation", "setting": "[6]", "value": 53, "unit": "%"}]}, {"smiles": "CN1CCN(c2ccc(C(=O)NCCCCCCCCCCCCCCCCCCO[N+](=O)[O-])cn2)CC1", "note": "[Compound 13, N-(18-Nitroxyoctadecyl)-6-(4-methyl-1-piperazinyl)pyridine-3-carboxamide]", "values": [{"measurement": "General behaviors (result in words)", "setting": "[2]", "value": "No abnormalities were observed in general behaviors"}, {"measurement": "Behavioral suppression", "setting": "[2]", "value": "Non"}]}, {"smiles": "O=C(NCCCCCCCCCCCCCCCCCCO[N+](=O)[O-])c1ccc(N2CCNCC2)nc1", "note": "[Compound 14, N-(18-Nitroxyoctadecyl)-6-(1-piperazinyl)pyridine-3-carboxamide]", "values": [{"measurement": "Inhibitory rate of lipid peroxidation", "setting": "[6]", "value": 75, "unit": "%"}]}, {"smiles": "CCN(CC)Cc1nccn1-c1ccc([N+](=O)[O-])cc1C(=O)c1ccccc1Cl", "note": "[Nizofenone]", "values": [{"measurement": "Behavior suppressing activity as a side-effect", "setting": "[7]", "value": "behavior suppressing activity"}]}]}
